According to publication PMC7247818, “Demonstration of Binding Induced Structural Plasticity in a SH2 Domain” (Frontiers in Molecular Biosciences, 2020):
Where a SMILES comes first, the peptide text is derived from it.

What was measured:
Conditions in all cases: 10°C
[1] = target: T1, N-SH2 domain of PI3K, L59A variant (Homo sapiens, UniProt P27986, L380A); assay: Stopped-flow binding kinetics, N-SH2 L59A
T1 construct: made in house
Description: (§1) N-SH2 wild-type and all the site-directed variants were expressed and purified as described previously ([Visconti et al., 2019]). All the mutants were obtained using a QuickChange Lightning Site-Directed Mutagenesis kit (Agilent technologies), accordingly to manufacturer instructions. Peptides with sequence TNSEDNpYVPMNPG mimicking wild-type Gab2 and TNSEDNpYVPANPG mimicking the M457A variant of Gab2 were purchased from GenScript Biotech Corporation.
(§2) Binding kinetics experiments were performed using a single-mixing SX-18 stopped-flow instrument (Applied Photophysics); all binding experiments were conducted in 50 mM Hepes pH 7.4 300 mM NaCl at 10°C. Excitation was at 280 nm and emission was collected using a […] cut-off glass filter. Pseudo-first order binding experiments were performed mixing a constant concentration of dansylated Gab2_448–460 and Gab2_448–460 M457A (1 μM) vs. N-SH2 wt and its mutants at concentrations ranging from […]. For each N-SH2 concentration, usually 5 individual traces were averaged and in all cases the fluorescence time courses obtained was satisfactorily fitted by using a single exponential equation.
(§3) One of the aims of this study is to depict the molecular details of the interaction between the N-SH2 domain of PI3K and Gab2. […] To monitor binding by fluorescence, a dansyl group was added at the N-terminus of the peptide. The binding reaction was monitored by stopped-flow experiments following the change in FRET signal, taking advantage of the two Trp residues on the N-SH2 domain in positions 12 and 14 as fluorescence donor and the dansyl group on Gab2_448–460 as acceptor. […]
(§4) with kon being the slope of the line and koff the intercept with the y-axis. […] Kinetic parameters extracted from data together with the calculated changes in activation and equilibrium free energies are reported in Table 1. […]

[2] = target: T2, N-SH2 domain of PI3K, I60V variant (Homo sapiens, UniProt P27986, I381V); assay: Stopped-flow binding kinetics, N-SH2 I60V
T2 construct: made in house
T2 sequence (P27986 333-428 I381V): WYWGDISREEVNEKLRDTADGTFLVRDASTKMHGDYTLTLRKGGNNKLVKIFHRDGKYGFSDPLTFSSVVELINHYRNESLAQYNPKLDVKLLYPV
Description: as §1, §2
(§5) One of the aims of this study is to depict the molecular details of the interaction between the N-SH2 domain of PI3K and Gab2. A powerful strategy to achieve this goal relies on perturbing the system by producing conservative site-directed variants while monitoring the effect of mutations on the association and dissociation rate constants between the interacting partners (kon and koff respectively). Thus, we designed and successfully produced 21 site-directed variants of the N-SH2 domain and challenged them vs. a peptide mimicking the region of Gab2 ranging from residue 448–460 (Gab2_448–460), containing the pY-X-X-M motif that is specifically recognized by the N-SH2 domain ([Waksman et al., 1992]; [Songyang et al., 1993]). The choise of mutations was designed in analogy to phi-value analysis methodology in protein folding studies ([Fersht and Sato, 2004]). […] To monitor binding by fluorescence, a dansyl group was added at the N-terminus of the peptide. The binding reaction was monitored by stopped-flow experiments following the change in FRET signal, taking advantage of the two Trp residues on the N-SH2 domain in positions 12 and 14 as fluorescence donor and the dansyl group on Gab2_448–460 as acceptor. The experiments were performed in pseudo-first order conditions with Gab2_448–460 at fixed concentration of 1 μM rapidly mixed vs. large excess of N-SH2 wt and its variants, ranging from 4 to 14 μM, in buffer Hepes 50 mM, NaCl 300 mM, pH 7.4, at 10°C.
(§6) with kon being the slope of the line and koff the intercept with the y-axis. Since indirect calculation of koff obtained by extrapolation is associated with high experimental error, we performed displacement experiments to directly measure koff by challenging a pre-incubated complex of dansylated Gab2_448–460 and N-SH2 domain both at the concentration of 1 μM vs. a large excess of non-dansylated Gab2_448–460 (50 μM). Kinetic parameters extracted from data together with the calculated changes in activation and equilibrium free energies are reported in Table 1. Analysis of kinetic data highlights that T48S, L51A, and L59A variations cause a detectable decrease of the affinity of the domain for Gab2_448–460 of ∼10-fold, affecting both the kon and koff. […] Since L99 residue is part of the binding pocket, this dramatic effect on the binding affinity is expected.
(§7) SH2 domains bind ligands with a phosphorylated tyrosine in their sequence. The N-SH2 domain of PI3K is known to recognize a specific consensus sequences that present a methionine in position +3 in respect to the phosphotyrosine (M457 in Gab2). […]

[3] = target: T3, N-SH2 domain of PI3K, I62V variant (Homo sapiens, UniProt P27986, I383V); assay: Stopped-flow binding kinetics, N-SH2 I62V
T3 construct: made in house
T3 sequence (P27986 333-428 I383V): as the sequence (P27986 333-428 I381V) above, with V49I, I51V counted along it
Description: as §1, §2, §5, §6, §7

[4] = target: T4, N-SH2 domain of PI3K, P74A variant (Homo sapiens, UniProt P27986, P395A); assay: Stopped-flow binding kinetics, N-SH2 P74A
T4 construct: made in house
T4 sequence (P27986 333-428 P395A): as the sequence (P27986 333-428 I381V) above, with V49I, P63A counted along it
Description: as §1, §2, §5, §6, §7

[5] = target: T5, N-SH2 domain of PI3K, L75A variant (Homo sapiens, UniProt P27986, L396A); assay: Stopped-flow binding kinetics, N-SH2 L75A
T5 construct: made in house
T5 sequence (P27986 333-428 L396A): as the sequence (P27986 333-428 I381V) above, with V49I, L64A counted along it
Description: as §1, §2, §5, §6, §7

[6] = target: T6, N-SH2 domain of PI3K, T76S variant (Homo sapiens, UniProt P27986, T397S); assay: Stopped-flow binding kinetics, N-SH2 T76S
T6 construct: made in house
T6 sequence (P27986 333-428 T397S): as the sequence (P27986 333-428 I381V) above, with V49I, T65S counted along it
Description: as §1, §2, §5, §6, §7

[7] = target: T7, N-SH2 domain of PI3K, V80A variant (Homo sapiens, UniProt P27986, V401A); assay: Stopped-flow binding kinetics, N-SH2 V80A
T7 construct: made in house
T7 sequence (P27986 333-428 V401A): as the sequence (P27986 333-428 I381V) above, with V49I, V69A counted along it
Description: as §1, §2, §5, §6, §7

[8] = target: T8, N-SH2 domain of PI3K, V81A variant (Homo sapiens, UniProt P27986, V402A); assay: Stopped-flow binding kinetics, N-SH2 V81A
T8 construct: made in house
T8 sequence (P27986 333-428 V402A): as the sequence (P27986 333-428 I381V) above, with V49I, V70A counted along it
Description: as §1, §2, §5, §6, §7

[9] = target: T9, N-SH2 domain of PI3K, L99A variant (Homo sapiens, UniProt P27986, L420A); assay: Stopped-flow binding kinetics, N-SH2 L99A
T9 construct: made in house
T9 sequence (P27986 333-428 L420A): as the sequence (P27986 333-428 I381V) above, with V49I, L88A counted along it
Description: as §1, §2, §3, §4

[10] = target: T10, N-SH2 domain of PI3K, V101A variant (Homo sapiens, UniProt P27986, V422A); assay: Stopped-flow binding kinetics, N-SH2 V101A
T10 construct: made in house
T10 sequence (P27986 333-428 V422A): as the sequence (P27986 333-428 I381V) above, with V49I, V90A counted along it
Description: as §1, §2, §5, §6, §7

[11] = target: T11, N-SH2 domain of PI3K, L104A variant (Homo sapiens, UniProt P27986, L425A); assay: Stopped-flow binding kinetics, N-SH2 L104A
T11 construct: made in house
T11 sequence (P27986 333-428 L425A): as the sequence (P27986 333-428 I381V) above, with V49I, L93A counted along it
Description: as §1, §2, §5, §6, §7

[12] = stopped-flow FRET, 1 μM dansylated peptide, 50 mM Hepes pH 7.4, 300 mM NaCl
[13] = stopped-flow kinetics, pH 7.4, 300 mM NaCl
[14] = displacement experiment, pH 7.4, 300 mM NaCl

T1 sequence (P27986 333-428 L380A): as the sequence (P27986 333-428 I381V) above, with L48A, V49I counted along it

## CSCC[C@H](NC(=O)[C@@H]1CCCN1C(=O)[C@@H](NC(=O)[C@H](Cc1ccc(OP(=O)(O)O)cc1)NC(=O)[C@H](CC(N)=O)NC(=O)[C@H](CC(=O)O)NC(=O)[C@H](CCC(=O)O)NC(=O)[C@H](CO)NC(=O)[C@H](CC(N)=O)NC(=O)[C@@H](N)[C@@H](C)O)C(C)C)C(=O)N[C@@H](CC(N)=O)C(=O)N1CCC[C@H]1C(=O)NCC(=O)O [Gab2_448–460] (HELM PEPTIDE1{T.N.S.E.D.N.[O=C([C@H](Cc1ccc(OP(=O)(O)O)cc1)N[*:1])[*:2]].V.P.M.N.P.G}$$$$V2.0)
[1]; [12]
  kon: 6.7e+06 ± 1e+06 M⁻¹ s⁻¹
[1]; [13]
  Kd: 3200 ± 200 nM
[2]; [14]
  koff: 6.9 ± 0.3 s⁻¹
[2]; [12]
  kon: 9.1e+06 ± 1.1e+06 M⁻¹ s⁻¹
[2]; [13]
  Kd: 800 ± 100 nM
[3]; [14]
  koff: 4.5 ± 0.2 s⁻¹
[3]; [12]
  kon: 1.55e+07 ± 1.4e+06 M⁻¹ s⁻¹
[3]; [13]
  Kd: 300 ± 100 nM
[4]; [14]
  koff: 27 ± 1 s⁻¹
[4]; [12]
  kon: 4.87e+07 ± 1.5e+06 M⁻¹ s⁻¹
[4]; [13]
  Kd: 600 ± 100 nM
[5]; [14]
  koff: 6.1 ± 0.3 s⁻¹
[5]; [12]
  kon: 8.1e+06 ± 1.1e+06 M⁻¹ s⁻¹
[5]; [13]
  Kd: 800 ± 100 nM
[6]; [14]
  koff: 5.3 ± 0.3 s⁻¹
[6]; [12]
  kon: 1.69e+07 ± 1.3e+06 M⁻¹ s⁻¹
[6]; [13]
  Kd: 300 ± 100 nM
[7]; [14]
  koff: 4.4 ± 0.2 s⁻¹
[7]; [12]
  kon: 1.6e+07 ± 1.2e+06 M⁻¹ s⁻¹
[7]; [13]
  Kd: 300 ± 100 nM
[8]; [14]
  koff: 4.5 ± 0.2 s⁻¹
[8]; [12]
  kon: 1.2e+07 ± 1.4e+06 M⁻¹ s⁻¹
[8]; [13]
  Kd: 400 ± 100 nM
[9]; [14]
  koff: 160 ± 10 s⁻¹
[9]; [12]
  kon: 8.2e+06 ± 1.7e+06 M⁻¹ s⁻¹
[9]; [13]
  Kd: 20000 ± 200 nM
[10]; [14]
  koff: 7 ± 0.4 s⁻¹
[10]; [12]
  kon: 1.34e+07 ± 400000 M⁻¹ s⁻¹
[10]; [13]
  Kd: 500 ± 100 nM
[11]; [14]
  koff: 3.5 ± 0.2 s⁻¹
[11]; [12]
  kon: 1.65e+07 ± 200000 M⁻¹ s⁻¹
[11]; [13]
  Kd: 200 ± 100 nM
